Target: T1, expressed human SULT1A3 (Homo sapiens, UniProt P0DMM9)
Experiment: Sulfonation activities of flavonoids in expressed human SULT1A3
Type: in vitro ADME
Conditions: expressed SULT1A3, LC-MS/MS and UPLC

T1 sequence (P0DMM9 whole entry): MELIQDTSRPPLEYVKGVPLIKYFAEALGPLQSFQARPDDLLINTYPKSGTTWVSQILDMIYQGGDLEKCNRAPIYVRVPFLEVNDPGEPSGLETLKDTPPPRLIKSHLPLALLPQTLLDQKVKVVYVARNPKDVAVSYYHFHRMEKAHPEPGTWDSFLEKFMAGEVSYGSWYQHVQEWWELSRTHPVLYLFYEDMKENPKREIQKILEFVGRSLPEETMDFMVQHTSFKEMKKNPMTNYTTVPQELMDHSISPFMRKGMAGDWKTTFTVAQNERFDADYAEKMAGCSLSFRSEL

SMILES	sulfate detection when SULT1A3 was used
O=c1cc(-c2ccccc2)oc2cccc(O)c12 [5HF, 5-Hydroxyflavone]	not detected
O=c1cc(-c2ccc(O)cc2)oc2ccccc12 [4’HF, 4'-Hydroxyflavone]	not detected

Further lines, results first:

sulfate detection when SULT1A3 was used	SMILES
not detected	O=c1c(O)c(-c2ccccc2)oc2ccccc12 [3HF, 3-Hydroxyflavone]
not detected	O=c1c(-c2ccc(O)cc2)coc2cc(O)cc(O)c12 [genistein, Genistein]
not detected	O=c1c(O)c(-c2ccc(O)cc2)oc2ccccc12 [3,4’DHF, 3,4'-Dihydroxyflavone]

Same assay, conditions: expressed SULT1A3, substrate concentration 2.5 µM, pH 7.4, 37°C, n=3

SMILES	sulfonation rate [nmol/hr/mg protein]
O=c1cc(-c2ccccc2)oc2cc(O)ccc12 [7HF, 7-Hydroxyflavone]	35.66 ± 4.72
O=c1cc(-c2ccccc2)oc2cc(O)cc(O)c12 [5,7DHF, 5,7-Dihydroxyflavone]	62.30 ± 2.54
O=C(CCc1ccc(O)cc1)c1c(O)cc(O)cc1O [phloretin, Phloretin]	0
O=c1cc(-c2ccc(O)cc2)oc2cc(O)cc(O)c12 [apigenin, 5,7,4'-Trihydroxyflavone]	19.00 ± 1.58
O=c1cc(-c2ccccc2)oc2cccc(O)c12 [5HF, 5-Hydroxyflavone]	0
O=c1cc(-c2ccc(O)cc2)oc2ccccc12 [4’HF, 4'-Hydroxyflavone]	0
O=c1cc(-c2ccc(O)cc2)oc2cc(O)ccc12 [7,4’DHF, 7,4'-Dihydroxyflavone]	7.54 ± 0.34
O=C1C[C@@H](c2ccc(O)cc2)Oc2cc(O)cc(O)c21 [naringenin, Naringenin]	3.21 ± 0.36

Next, values leading:

sulfonation rate [nmol/hr/mg protein]	SMILES
0	O=c1c(O)c(-c2ccccc2)oc2ccccc12 [3HF, 3-Hydroxyflavone]
0	O=c1c(-c2ccc(O)cc2)coc2cc(O)cc(O)c12 [genistein, Genistein]
3.78 ± 0.79	O=c1c(O)c(-c2ccc(O)cc2)oc2cc(O)cc(O)c12 [kaempferol, 3,5,7,4’tetrahydroxyflavone]
45.84 ± 1.53	O=c1c(O)c(-c2ccccc2)oc2cc(O)ccc12 [3,7DHF, 3,7-Dihydroxyflavone]
13.88 ± 1.21	O=c1c(O)c(-c2ccccc2)oc2cc(O)cc(O)c12 [3,5,7THF, 3,5,7-Trihydroxyflavone]
0	O=c1c(O)c(-c2ccc(O)cc2)oc2ccccc12 [3,4’DHF, 3,4'-Dihydroxyflavone]
6.80 ± 1.28	O=c1c(O)c(-c2ccc(O)cc2)oc2cc(O)ccc12 [3,7,4'THF, 3,7,4'-Trihydroxyflavone]

Same assay, conditions: expressed SULT1A3, substrate concentration 2.5 µM, pH 7.4, 37°C, n=3; listed as 5,7,4'THF

SMILES	sulfonation rate [nmol/hr/mg protein]
O=c1cc(-c2ccc(O)cc2)oc2cc(O)cc(O)c12 [apigenin, 5,7,4'-Trihydroxyflavone]	19.00±1.58

Same assay, conditions: expressed SULT1A3, substrate concentration 10 µM, pH 7.4, 37°C, n=3

SMILES	sulfonation rate [nmol/hr/mg protein]
O=c1cc(-c2ccccc2)oc2cc(O)ccc12 [7HF, 7-Hydroxyflavone]	48.92 ± 5.18
O=c1cc(-c2ccccc2)oc2cc(O)cc(O)c12 [5,7DHF, 5,7-Dihydroxyflavone]	85.37 ± 1.53
O=C(CCc1ccc(O)cc1)c1c(O)cc(O)cc1O [phloretin, Phloretin]	0
O=c1cc(-c2ccc(O)cc2)oc2cc(O)cc(O)c12 [apigenin, 5,7,4'-Trihydroxyflavone]	19.36 ± 0.41
O=c1cc(-c2ccc(O)cc2)oc2cc(O)ccc12 [7,4’DHF, 7,4'-Dihydroxyflavone]	10.30 ± 1.64
O=C1C[C@@H](c2ccc(O)cc2)Oc2cc(O)cc(O)c21 [naringenin, Naringenin]	12.03 ± 0.94

The next lines start with the values.

sulfonation rate [nmol/hr/mg protein]	SMILES
0	O=c1c(O)c(-c2ccccc2)oc2ccccc12 [3HF, 3-Hydroxyflavone]
0	O=c1c(-c2ccc(O)cc2)coc2cc(O)cc(O)c12 [genistein, Genistein]
5.77 ± 0.22	O=c1c(O)c(-c2ccc(O)cc2)oc2cc(O)cc(O)c12 [kaempferol, 3,5,7,4’tetrahydroxyflavone]
74.69 ± 1.05	O=c1c(O)c(-c2ccccc2)oc2cc(O)ccc12 [3,7DHF, 3,7-Dihydroxyflavone]
24.98 ± 0.49	O=c1c(O)c(-c2ccccc2)oc2cc(O)cc(O)c12 [3,5,7THF, 3,5,7-Trihydroxyflavone]
0	O=c1c(O)c(-c2ccc(O)cc2)oc2ccccc12 [3,4’DHF, 3,4'-Dihydroxyflavone]
11.79 ± 0.33	O=c1c(O)c(-c2ccc(O)cc2)oc2cc(O)ccc12 [3,7,4'THF, 3,7,4'-Trihydroxyflavone]

Target: T1, expressed human SULT1A3
Experiment: Kinetics of flavonoid sulfonation by SULT1A3
Conditions: SULT1A3

Vmax-1/ Km1 [µL/min/mg]	SMILES
43000	O=c1c(O)c(-c2ccccc2)oc2cc(O)ccc12 [3,7DHF, 3,7-Dihydroxyflavone]

Same assay, conditions: SULT1A3, 0.039–20 µM substrate

SMILES	Km1 [µM]
O=c1cc(-c2ccccc2)oc2cc(O)ccc12 [7HF, 7-Hydroxyflavone]	2.80
O=c1cc(-c2ccccc2)oc2cc(O)cc(O)c12 [5,7DHF, 5,7-Dihydroxyflavone]	2.73
O=c1c(O)c(-c2ccccc2)oc2cc(O)ccc12 [3,7DHF, 3,7-Dihydroxyflavone]	1.85
O=c1cc(-c2ccc(O)cc2)oc2cc(O)ccc12 [7,4’DHF, 7,4'-Dihydroxyflavone]	3.42

Same assay, conditions: SULT1A3, best-fit model by Eadie-Hofstee plot and AIC

SMILES	Kinetic model
O=c1cc(-c2ccccc2)oc2cc(O)ccc12 [7HF, 7-Hydroxyflavone]	substrate inhibition kinetics
O=c1cc(-c2ccccc2)oc2cc(O)cc(O)c12 [5,7DHF, 5,7-Dihydroxyflavone]	Biphasic kinetics
O=c1c(O)c(-c2ccccc2)oc2cc(O)ccc12 [3,7DHF, 3,7-Dihydroxyflavone]	Sigmoidal kinetics of Hill equation
O=c1cc(-c2ccc(O)cc2)oc2cc(O)ccc12 [7,4’DHF, 7,4'-Dihydroxyflavone]	Substrate inhibition

Same assay, conditions: SULT1A3, biphasic kinetics

SMILES	Vmax-2 (biphasic) [nmol/min/mg]
O=c1cc(-c2ccccc2)oc2cc(O)cc(O)c12 [5,7DHF, 5,7-Dihydroxyflavone]	17.38

Same assay, conditions: SULT1A3, biphasic kinetics, low-affinity phase

SMILES	Km2 [mM]
O=c1cc(-c2ccccc2)oc2cc(O)cc(O)c12 [5,7DHF, 5,7-Dihydroxyflavone]	1e-06

Same assay, conditions: SULT1A3, substrate inhibition model

SMILES	Ksi (substrate inhibition constant)
O=c1cc(-c2ccccc2)oc2cc(O)ccc12 [7HF, 7-Hydroxyflavone]	23.12
O=c1cc(-c2ccc(O)cc2)oc2cc(O)ccc12 [7,4’DHF, 7,4'-Dihydroxyflavone]	13.81

Target: SULT1A3 (Homo sapiens, UniProt P0DMM9)
Experiment: Kinetics of flavonoid sulfonation by SULT1A3
Conditions: human

Sequence of SULT1A3 (P0DMM9 whole entry): as above

SMILES	microsomal CLint [µL/min/mg]
O=c1cc(-c2ccccc2)oc2cc(O)ccc12 [7HF, 7-Hydroxyflavone]	30400
